Experiments:
[1] = Ratio of drug uptake in putamen to cerebellum in anesthetized cynomolgus monkey after 235 mins postinjection; format: ADME, organism-based, Macaca fascicularis; conditions: in vivo
Pons [2] = test: Drug uptake in anesthetized cynomolgus monkey brain pons after 6.5 mins postinjection; format: ADME, organism-based, Macaca fascicularis; conditions: in vivo
Thalamus [3] = test: Drug uptake in anesthetized cynomolgus monkey brain thalamus after 145 mins postinjection; format: ADME, organism-based, Macaca fascicularis; set-up: unit not given here; conditions: in vivo
Midbrain [4] = test: Drug uptake in anesthetized cynomolgus monkey brain midbrain after 165 mins postinjection; format: ADME, organism-based, Macaca fascicularis; conditions: in vivo, 2.75 h
[5] = Drug uptake in anesthetized cynomolgus monkey brain occipital lobe after 35 mins postinjection; format: ADME, organism-based, Macaca fascicularis; conditions: in vivo
Medulla [6] = test: Drug uptake in anesthetized cynomolgus monkey brain medulla after 0.5 mins postinjection; format: ADME, organism-based, Macaca fascicularis; conditions: in vivo
Thalamus [7] = test: Drug uptake in anesthetized cynomolgus monkey brain thalamus after 0.5 mins postinjection; format: ADME, organism-based, Macaca fascicularis; conditions: in vivo
[8] = Ratio of drug uptake in pons to cerebellum in anesthetized cynomolgus monkey after 145 mins postinjection; format: ADME, organism-based, Macaca fascicularis; conditions: in vivo
Midbrain [9] = test: Drug uptake in anesthetized cynomolgus monkey brain midbrain after 175 mins postinjection; format: ADME, organism-based, Macaca fascicularis; conditions: in vivo
Medulla [10] = test: Drug uptake in anesthetized cynomolgus monkey brain medulla after 35 mins postinjection; format: ADME, organism-based, Macaca fascicularis; conditions: in vivo
[11] = Ratio of drug uptake in pons to cerebellum in anesthetized cynomolgus monkey after 0.5 mins postinjection; format: ADME, organism-based, Macaca fascicularis; conditions: in vivo
[12] = Ratio of drug uptake in occipital lobe to cerebellum in anesthetized cynomolgus monkey after 95 mins postinjection; format: ADME, organism-based, Macaca fascicularis; conditions: in vivo
[13] = Drug uptake in anesthetized cynomolgus monkey brain occipital lobe after 85 mins postinjection; format: ADME, organism-based, Macaca fascicularis; conditions: in vivo
[14] = Drug uptake in anesthetized cynomolgus monkey brain frontal lobe after 125 mins postinjection; format: ADME, organism-based, Macaca fascicularis; conditions: in vivo
[15] = Ratio of drug uptake in midbrain to cerebellum in anesthetized cynomolgus monkey after 9.5 mins postinjection; format: ADME, organism-based, Macaca fascicularis; conditions: in vivo
Thalamus [16] = test: Drug uptake in anesthetized cynomolgus monkey brain thalamus after 4.5 mins postinjection; format: ADME, organism-based, Macaca fascicularis; set-up: unit not given here; conditions: in vivo, 0.075 h
Pons [17] = test: Drug uptake in anesthetized cynomolgus monkey brain pons after 15.5 mins postinjection; format: ADME, organism-based, Macaca fascicularis; conditions: in vivo
Pons [18] = test: Drug uptake in anesthetized cynomolgus monkey brain pons after 105 mins postinjection; format: ADME, organism-based, Macaca fascicularis; conditions: in vivo, 1.75 h
Caudate [19] = test: Drug uptake in anesthetized cynomolgus monkey brain caudate after 0.5 mins postinjection; format: ADME, organism-based, Macaca fascicularis, Caudate nucleus; conditions: in vivo
[20] = Drug uptake in anesthetized cynomolgus monkey brain frontal lobe after 235 mins postinjection; format: ADME, organism-based, Macaca fascicularis; conditions: in vivo
[21] = Ratio of drug uptake in medulla to cerebellum in anesthetized cynomolgus monkey after 95 mins postinjection; format: ADME, organism-based, Macaca fascicularis; conditions: in vivo
Pons [22] = test: Drug uptake in anesthetized cynomolgus monkey brain pons after 145 mins postinjection; format: ADME, organism-based, Macaca fascicularis; conditions: in vivo
[23] = Drug uptake in anesthetized cynomolgus monkey brain cerebellum after 4.5 mins postinjection; format: ADME, organism-based, Macaca fascicularis; conditions: in vivo, 0.075 h
[24] = Ratio of drug uptake in pons to cerebellum in anesthetized cynomolgus monkey after 95 mins postinjection; format: ADME, organism-based, Macaca fascicularis; conditions: in vivo
Thalamus [25] = test: Drug uptake in anesthetized cynomolgus monkey brain thalamus after 165 mins postinjection; format: ADME, organism-based, Macaca fascicularis; set-up: unit not given here; conditions: in vivo, 2.75 h
Caudate [26] = test: Drug uptake in anesthetized cynomolgus monkey brain caudate after 215 mins postinjection; format: ADME, organism-based, Macaca fascicularis, Caudate nucleus; conditions: in vivo
Midbrain [27] = test: Drug uptake in anesthetized cynomolgus monkey brain midbrain after 115 mins postinjection; format: ADME, organism-based, Macaca fascicularis; set-up: unit not given here; conditions: in vivo
Thalamus [28] = test: Drug uptake in anesthetized cynomolgus monkey brain thalamus after 6.5 mins postinjection; format: ADME, organism-based, Macaca fascicularis; set-up: unit not given here; conditions: in vivo
Pons [29] = test: Drug uptake in anesthetized cynomolgus monkey brain pons after 205 mins postinjection; format: ADME, organism-based, Macaca fascicularis; conditions: in vivo
Putamen [30] = test: Drug uptake in anesthetized cynomolgus monkey brain putamen after 135 mins postinjection; format: ADME, organism-based, Macaca fascicularis; conditions: in vivo, 2.25 h
[31] = Drug uptake in anesthetized cynomolgus monkey brain occipital lobe after 45 mins postinjection; format: ADME, organism-based, Macaca fascicularis; conditions: in vivo, 0.75 h
[32] = Drug uptake in anesthetized cynomolgus monkey brain frontal lobe after 1.5 mins postinjection; format: ADME, organism-based, Macaca fascicularis; conditions: in vivo, 0.025 h
[33] = Drug uptake in anesthetized cynomolgus monkey brain frontal lobe after 185 mins postinjection; format: ADME, organism-based, Macaca fascicularis; conditions: in vivo
[34] = Ratio of drug uptake in pons to cerebellum in anesthetized cynomolgus monkey after 85 mins postinjection; format: ADME, organism-based, Macaca fascicularis; conditions: in vivo
[35] = Drug uptake in anesthetized cynomolgus monkey brain cerebellum after 15.5 mins postinjection; format: ADME, organism-based, Macaca fascicularis; conditions: in vivo
Midbrain [36] = test: Drug uptake in anesthetized cynomolgus monkey brain midbrain after 145 mins postinjection; format: ADME, organism-based, Macaca fascicularis; conditions: in vivo
[37] = Drug uptake in anesthetized cynomolgus monkey brain cerebellum after 105 mins postinjection; format: ADME, organism-based, Macaca fascicularis; conditions: in vivo, 1.75 h
Putamen [38] = test: Drug uptake in anesthetized cynomolgus monkey brain putamen after 1.5 mins postinjection; format: ADME, organism-based, Macaca fascicularis; conditions: in vivo, 0.025 h
[39] = Ratio of drug uptake in caudate to cerebellum in anesthetized cynomolgus monkey after 55 mins postinjection; format: ADME, organism-based, Macaca fascicularis; conditions: in vivo
[40] = Ratio of drug uptake in occipital lobe to cerebellum in anesthetized cynomolgus monkey after 115 mins postinjection; format: ADME, organism-based, Macaca fascicularis; conditions: in vivo
Caudate [41] = test: Drug uptake in anesthetized cynomolgus monkey brain caudate after 115 mins postinjection; format: ADME, organism-based, Macaca fascicularis, Caudate nucleus; conditions: in vivo
Caudate [42] = test: Drug uptake in anesthetized cynomolgus monkey brain caudate after 195 mins postinjection; format: ADME, organism-based, Macaca fascicularis, Caudate nucleus; conditions: in vivo, 3.25 h
Caudate [43] = test: Drug uptake in anesthetized cynomolgus monkey brain caudate after 9.5 mins postinjection; format: ADME, organism-based, Macaca fascicularis, Caudate nucleus; conditions: in vivo
Pons [44] = test: Drug uptake in anesthetized cynomolgus monkey brain pons after 165 mins postinjection; format: ADME, organism-based, Macaca fascicularis; conditions: in vivo, 2.75 h
[45] = Ratio of drug uptake in midbrain to cerebellum in anesthetized cynomolgus monkey after 135 mins postinjection; format: ADME, organism-based, Macaca fascicularis; conditions: in vivo, 2.25 h
Medulla [46] = test: Drug uptake in anesthetized cynomolgus monkey brain medulla after 15.5 mins postinjection; format: ADME, organism-based, Macaca fascicularis; conditions: in vivo
[47] = Drug uptake in anesthetized cynomolgus monkey brain cerebellum after 0.5 mins postinjection; format: ADME, organism-based, Macaca fascicularis; conditions: in vivo
[48] = Ratio of drug uptake in occipital lobe to cerebellum in anesthetized cynomolgus monkey after 105 mins postinjection; format: ADME, organism-based, Macaca fascicularis; conditions: in vivo, 1.75 h

## O=C(OCC[18F])C1C2CCC(CC1c1cccc(/C=C\Br)c1)N2 (stereo unspecified)
[1]
  Ratio: 1.8
Pons [2]
  Drug uptake: 2.79
Thalamus [3]
  Drug uptake: 3.86
Midbrain [4]
  Drug uptake: 4.28
[5]
  Drug uptake: 3.43
Medulla [6]
  Drug uptake: 0
Thalamus [7]
  Drug uptake: 0
[8]
  Ratio: 1.8
Midbrain [9]
  Drug uptake: 4.13
Medulla [10]
  Drug uptake: 4.97
[11]
  Ratio: 3.8
[12]
  Ratio: 1
[13]
  Drug uptake: 3.31
[14]
  Drug uptake: 2.69
[15]
  Ratio: 1.1
Thalamus [16]
  Drug uptake: 1.44
Pons [17]
  Drug uptake: 3.73
Pons [18]
  Drug uptake: 4.34
Caudate [19]
  Drug uptake: 0
[20]
  Drug uptake: 1.87
[21]
  Ratio: 1.5
Pons [22]
  Drug uptake: 4.16
[23]
  Drug uptake: 1.76
[24]
  Ratio: 1.4
Thalamus [25]
  Drug uptake: 3.64
Caudate [26]
  Drug uptake: 2.85
Midbrain [27]
  Drug uptake: 4.78
Thalamus [28]
  Drug uptake: 2.44
Pons [29]
  Drug uptake: 3.51
Putamen [30]
  Drug uptake: 4.4
[31]
  Drug uptake: 3.55
[32]
  Drug uptake: 0.04
[33]
  Drug uptake: 2.29
[34]
  Ratio: 1.4
[35]
  Drug uptake: 3.57
Midbrain [36]
  Drug uptake: 4.65
[37]
  Drug uptake: 2.87
Putamen [38]
  Drug uptake: 0.06
[39]
  Ratio: 1.1
[40]
  Ratio: 1.1
Caudate [41]
  Drug uptake: 4.06
Caudate [42]
  Drug uptake: 3.08
Caudate [43]
  Drug uptake: 2.36
Pons [44]
  Drug uptake: 3.9
[45]
  Ratio: 1.9
Medulla [46]
  Drug uptake: 4.15
[47]
  Drug uptake: 0
[48]
  Ratio: 1.1

## O=C(OCCC[18F])C1C2CCC(CC1c1cccc(/C=C\I)c1)N2 (stereo unspecified)
[1]
  Ratio: 1.6
Pons [2]
  Drug uptake: 2.85
Thalamus [3]
  Drug uptake: 3.93
Midbrain [4]
  Drug uptake: 4.26
[5]
  Drug uptake: 4.01
Medulla [6]
  Drug uptake: 0.01
Thalamus [7]
  Drug uptake: 0.01
[8]
  Ratio: 1.6
Midbrain [9]
  Drug uptake: 4.1
Medulla [10]
  Drug uptake: 5.04
[11]
  Ratio: 1.7
[12]
  Ratio: 1
[13]
  Drug uptake: 3.52
[14]
  Drug uptake: 2.54
[15]
  Ratio: 0.9
Thalamus [16]
  Drug uptake: 2.07
Pons [17]
  Drug uptake: 3.62
Pons [18]
  Drug uptake: 4.01
Caudate [19]
  Drug uptake: 0.01
[20]
  Drug uptake: 1.78
[21]
  Ratio: 1.4
Pons [22]
  Drug uptake: 3.74
[23]
  Drug uptake: 2.5
[24]
  Ratio: 1.3
Thalamus [25]
  Drug uptake: 3.67
Caudate [26]
  Drug uptake: 2.54
Midbrain [27]
  Drug uptake: 4.76
Thalamus [28]
  Drug uptake: 3.06
Pons [29]
  Drug uptake: 3.34
Putamen [30]
  Drug uptake: 4.16
[31]
  Drug uptake: 4.09
[32]
  Drug uptake: 0.16
[33]
  Drug uptake: 2.03
[34]
  Ratio: 1.1
[35]
  Drug uptake: 4.75
Midbrain [36]
  Drug uptake: 4.38
[37]
  Drug uptake: 3.31
Putamen [38]
  Drug uptake: 0.27
[39]
  Ratio: 0.9
[40]
  Ratio: 1
Caudate [41]
  Drug uptake: 3.61
Caudate [42]
  Drug uptake: 2.74
Caudate [43]
  Drug uptake: 2.7
Pons [44]
  Drug uptake: 3.73
[45]
  Ratio: 1.7
Medulla [46]
  Drug uptake: 4.36
[47]
  Drug uptake: 0.01
[48]
  Ratio: 1
